These results are taken from patent publication US20260262643A1, “HERBICIDAL BENZOXAZINES” (FMC CORPORATION, priority 2022, published 2026).

Test [1] relates to Pigweed, Redroot. Description: Test A preemergence. To be noted: 1000 g ai/ha, 0 to 100 scale (0 no effect, 100 complete control), 10 days. In kind it is in vivo, Amaranthus retroflexus. An excerpt: Seeds of plant species selected from barnyardgrass (Echinochloa crusgalli), blackgrass (Alopecurus myosuroides), corn (Zea mays), foxtail, giant (giant foxtail, Setaria faberi), goosegrass (Eleusine indica), kochia (Bassia scoparia), oat, wild (wild oat, Avena fatua), pigweed, palmer (palmer amaranth, palmer pigweed, Amaranthus palmeri), Pigweed, Redroot (redroot pigweed, Amaranthus retroflexus), ragweed (common ragweed, Ambrosia artemisiifolia), ryegrass, Italian (italian ryegrass, Lolium multiflorum), soybean (Glycine max), and wheat (Triticum aestivum) were planted into a blend of loam soil and sand and treated preemergence with a directed soil spray using test chemicals formulated in a non-phytotoxic solvent mixture which included a surfactant. At the same time, plants selected from these crops and weed species and also galium (catchweed bedstraw, Galium aparine) and horseweed (Erigeron canadensis) were planted in pots containing the same blend of loam soil and sand and treated with postemergence applications of test chemicals formulated in the same manner. Plants ranged in height from 2 to 10 cm and were in the one- to two-leaf stage for the postemergence treatment. Treated plants and untreated controls were maintained in a greenhouse for 10 days, after which time all treated plants were compared to untreated controls and visually evaluated for injury. Plant response ratings, summarized in Table A, are based on a 0 to 100 scale where 0 is no effect and 100 is complete control. A dash (-) response means no test result.

Test [2] relates to foxtail, giant. Description: Test A preemergence. The class given is in vivo, Setaria faberi. To be noted: 1000 g ai/ha, 0 to 100 scale (0 no effect, 100 complete control), 10 days. The gist of the method: (§1)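 Greenhouse pot test, 10 days. Compound (non-phytotoxic solvent, surfactant) sprayed on soil at seeding or on seedlings at one- to two-leaf stage. Visual injury rated 0–100 against untreated plants.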

For test [3], the system named is ryegrass, Italian. Nature of the test: Test A preemergence. In kind it is in vivo, Lolium multiflorum. Particulars: 1000 g ai/ha, 0 to 100 scale (0 no effect, 100 complete control), 10 days. The method, boiled down:
as §1

For test [4], the system named is barnyardgrass. Description: Test A preemergence. The class given is in vivo, Echinochloa crusgalli. To be noted: 1000 g ai/ha, 0 to 100 scale (0 no effect, 100 complete control), 10 days. The gist of the method: as §1
Test [5] relates to ragweed. Description: Test A preemergence. Particulars: 1000 g ai/ha, 0 to 100 scale (0 no effect, 100 complete control), 10 days. The class given is in vivo, Ambrosia artemisiifolia. The gist of the method: as §1
For test [6], the system named is kochia. Nature of the test: Test A preemergence. Particulars: 1000 g ai/ha, 0 to 100 scale (0 no effect, 100 complete control), 10 days. In kind it is in vivo, Bassia scoparia. The method, boiled down:
as §1

The subject of test [7] is sedge, umbrella. Description: Test B flooded paddy test. The class given is in vivo, Cyperus difformis. Particulars: 250 g ai/ha, Flood, 13 days, 0 to 100 scale (0 no effect, 100 complete control). The method, boiled down:
(§2)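 Percent weed or crop control, judged by eye on a 0–100 scale 13 days post-treatment, reflects compound added to a 3 cm flood maintained over 2-leaf plants in the greenhouse. Missing entries are marked with a dash.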

Test [8] deals with ducksalad. Description: Test B flooded paddy test. To be noted: 250 g ai/ha, Flood, 13 days, 0 to 100 scale (0 no effect, 100 complete control). In kind it is in vivo, Heteranthera limosa. The gist of the method: as §2
Test [9] deals with rice. Description: Test B flooded paddy test. The class given is in vivo, Oryza sativa. To be noted: 250 g ai/ha, Flood, 13 days, 0 to 100 scale (0 no effect, 100 complete control). The gist of the method: as §2
Test [10] deals with barnyardgrass. Nature of the test: Test B flooded paddy test. The class given is in vivo, Echinochloa crus-galli. To be noted: 250 g ai/ha, Flood, 13 days, 0 to 100 scale (0 no effect, 100 complete control). The gist of the method: as §2

In the case of `CC1CN(C(=O)c2ccnc(-n3cncn3)c2)c2ccccc2O1` (stereo not drawn) [Compounds 8], the “Plant response rating, Pigweed, Redroot” value in test [1] amounted to 10. Also, in [2], the “Plant response rating, Foxtail, Giant” value was determined as 90. Besides, the “Plant response rating, Ryegrass, Italian” value in test [3] stood at 40. In addition, the “Plant response rating, Barnyardgrass” value in test [4] was determined as 0. Also, the “Plant response rating, Ragweed” value in test [5] is 0. In test [6], the “Plant response rating, Kochia” value is recorded as 50.
Turning to `CCC1CN(C(=O)c2ccnc(-n3cncn3)c2)c2cccc(Cl)c2O1` (single isomer, unassigned) [Compound 5], the “Plant response rating, Sedge, Umbrella” value in [7] stood at 0. The “Plant response rating, Pigweed, Redroot” value in test [1] was 80. Besides, in [2], the “Plant response rating, Foxtail, Giant” value was found to be 100. Moreover, the “Plant response rating, Ducksalad” value in test [8] is 35. In test [9], the “Plant response rating, Rice” value was 0. For the same molecule, the “Plant response rating, Ryegrass, Italian” value in [3] was 80. Also, the entries for the “Plant response rating, Barnyardgrass” value in test [4] and in test [10] were 70 and 25, respectively. In test [5], the “Plant response rating, Ragweed” value was 0. Moreover, the “Plant response rating, Kochia” value in test [6] was found to be 30.
Take `CCC1CN(C(=O)c2ccnc(-n3cncn3)c2)c2cccc(Cl)c2O1` (single isomer, unassigned) [Compound 4]: the “Plant response rating, Pigweed, Redroot” value in test [1] is reported as 0. The “Plant response rating, Foxtail, Giant” value in test [2] worked out at 0. In addition, the “Plant response rating, Ryegrass, Italian” value in test [3] is given as 0. For the same molecule, the “Plant response rating, Barnyardgrass” value in test [4] was found to be 0. The “Plant response rating, Ragweed” value in test [5] came to 0. The “Plant response rating, Kochia” value in [6] worked out at 0.
With `CCC1CN(C(=O)c2ccnc(-n3cncn3)c2)c2cccc(F)c2O1` (stereo not drawn) [Compound 15], the “Plant response rating, Pigweed, Redroot” value in [1] is on record as 90. Further, the “Plant response rating, Foxtail, Giant” value in [2] worked out at 100. The “Plant response rating, Ryegrass, Italian” value in test [3] was 60. In addition, the “Plant response rating, Barnyardgrass” value in test [4] is 60. In test [5], the “Plant response rating, Ragweed” value is on record as 0. Also, in test [6], the “Plant response rating, Kochia” value amounted to 60.
For the molecule `CCC1CN(C(=O)c2ccnc(-n3cncn3)c2)c2cccc(C)c2O1` (stereo not drawn) [Compound 11], the “Plant response rating, Pigweed, Redroot” value in test [1] was determined as 90. For the same molecule, the “Plant response rating, Foxtail, Giant” value in test [2] was 100. Moreover, the “Plant response rating, Ryegrass, Italian” value in test [3] was determined as 50. Besides, the “Plant response rating, Barnyardgrass” value in test [4] is on record as 30. The “Plant response rating, Ragweed” value in [5] was determined as 0. Moreover, the “Plant response rating, Kochia” value in [6] came out at 0.
Turning to `CC1CN(C(=O)c2ccnc(-n3cncn3)c2)c2cccc(Cl)c2O1` (stereo not drawn) [Compound 10], the “Plant response rating, Sedge, Umbrella” value in test [7] is 0. Also, the “Plant response rating, Pigweed, Redroot” value in test [1] was 40. The “Plant response rating, Foxtail, Giant” value in test [2] stood at 100. Moreover, the “Plant response rating, Ducksalad” value in test [8] was 0. For the same molecule, the “Plant response rating, Rice” value in test [9] is reported as 0. In addition, in test [3], the “Plant response rating, Ryegrass, Italian” value was 80. The figures for the “Plant response rating, Barnyardgrass” value in [4] and in test [10] were 90 and 0, respectively. Further, the “Plant response rating, Ragweed” value in [5] turned out to be 80. Also, the “Plant response rating, Kochia” value in [6] is on record as 30.
Turning to `CCC1CN(C(=O)c2ccnc(-n3cncn3)c2)c2c(Cl)cccc2O1` (stereo not drawn) [Compound 14], in test [1], the “Plant response rating, Pigweed, Redroot” value was 10. The “Plant response rating, Foxtail, Giant” value in test [2] is 30. Also, the “Plant response rating, Ryegrass, Italian” value in test [3] was determined as 20. For the same molecule, in [4], the “Plant response rating, Barnyardgrass” value turned out to be 0. Besides, in test [5], the “Plant response rating, Ragweed” value is listed as 0. Besides, the “Plant response rating, Kochia” value in test [6] amounted to 30.
On to `CCC1CN(C(=O)c2ccnc(-n3cncn3)c2)c2cc(Cl)ccc2O1` (stereo not drawn) [Compound 12], for which the “Plant response rating, Pigweed, Redroot” value in [1] is recorded as 0. The “Plant response rating, Foxtail, Giant” value in test [2] came to 20. For the same molecule, the “Plant response rating, Ryegrass, Italian” value in test [3] is on record as 0. Also, the “Plant response rating, Barnyardgrass” value in test [4] stood at 0. Further, the “Plant response rating, Ragweed” value in test [5] is on record as 0. Further, in [6], the “Plant response rating, Kochia” value is reported as 0.
Consider `CC1CN(C(=O)c2ccnc(-n3cncn3)c2)c2cccc(Cl)c2O1` (stereo not drawn) [Compound 1], for which, in test [7], the “Plant response rating, Sedge, Umbrella” value is listed as 0. The “Plant response rating, Pigweed, Redroot” value in test [1] worked out at 40. For the same molecule, the “Plant response rating, Foxtail, Giant” value in test [2] was 100. Besides, in [8], the “Plant response rating, Ducksalad” value amounted to 0. In test [9], the “Plant response rating, Rice” value was 0. The “Plant response rating, Ryegrass, Italian” value in [3] came out at 90. Further, the results for the “Plant response rating, Barnyardgrass” value in test [4] and in [10] were 80 and 0, respectively. Further, the “Plant response rating, Ragweed” value in test [5] is reported as 80. Further, the “Plant response rating, Kochia” value in [6] came out at 40.
Regarding `CC(C)C1CN(C(=O)c2ccnc(-n3cncn3)c2)c2cccc(Cl)c2O1` (stereo not drawn) [Compound 3], in [1], the “Plant response rating, Pigweed, Redroot” value is 0. The “Plant response rating, Foxtail, Giant” value in test [2] was 0. Moreover, in test [3], the “Plant response rating, Ryegrass, Italian” value is given as 0. The “Plant response rating, Barnyardgrass” value in test [4] is 0. Also, the “Plant response rating, Ragweed” value in [5] is on record as 0. The “Plant response rating, Kochia” value in test [6] amounted to 0.
Consider `CCC1CN(C(=O)c2ccnc(-n3cncn3)c2)c2cccc(Br)c2O1` (stereo not drawn) [Compound 13], for which the “Plant response rating, Pigweed, Redroot” value in test [1] is listed as 50. Besides, in test [2], the “Plant response rating, Foxtail, Giant” value was found to be 90. In addition, the “Plant response rating, Ryegrass, Italian” value in test [3] is given as 30. For the same molecule, the “Plant response rating, Barnyardgrass” value in test [4] was found to be 0. The “Plant response rating, Ragweed” value in test [5] is listed as 0. For the same molecule, the “Plant response rating, Kochia” value in test [6] was found to be 60.
On to `CCC1CN(C(=O)c2ccnc(-n3cncn3)c2)c2ccc(Cl)cc2O1` (stereo not drawn) [Compound 16], for which the “Plant response rating, Pigweed, Redroot” value in test [1] is 20. In addition, in test [2], the “Plant response rating, Foxtail, Giant” value is recorded as 0. In addition, the “Plant response rating, Ryegrass, Italian” value in test [3] was determined as 0. Also, the “Plant response rating, Barnyardgrass” value in [4] was found to be 0. Besides, in test [5], the “Plant response rating, Ragweed” value was 0. Besides, the “Plant response rating, Kochia” value in test [6] was 20.
With `CCCC1CN(C(=O)c2ccnc(-n3cncn3)c2)c2cccc(Cl)c2O1` (stereo not drawn) [Compound 2], the “Plant response rating, Pigweed, Redroot” value in test [1] came out at 20. Also, the “Plant response rating, Foxtail, Giant” value in test [2] amounted to 100. Besides, the “Plant response rating, Ryegrass, Italian” value in test [3] was 60. Also, the “Plant response rating, Barnyardgrass” value in [4] was determined as 60. Further, in [5], the “Plant response rating, Ragweed” value came to 0. Further, the “Plant response rating, Kochia” value in [6] turned out to be 0.
